Test results: the supplement of paper PMC10307832

What was measured:
Assay in all cases: relative viability (nuclei count vs DMSO), 5 days (fraction); higher = more cells survive
CUDC-101 + Luminespib = compound: C#Cc1cccc(Nc2ncnc3cc(OC)c(OCCCCCCC(=O)NO)cc23)c1 [CUDC-101] + CCNC(=O)c1noc(-c2cc(C(C)C)c(O)cc2O)c1-c1ccc(CN2CCOCC2)cc1 [Luminespib] (partner 0.01 µM)
In short: (§1)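 Lung cancer cell lines were pin-tool dosed in 1536-well plates on the day after seeding, with either a lone drug or a fixed anchor-drug dose plus five library-drug doses (not always all listed) in √10 steps. Nuclei were counted on 4× images after 5 days. Relative viability is the ratio of treated-well to vehicle-well nuclei counts, with each value a median of duplicate plates.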

[1] = compound: C1=CC=C2C(=C1)N=C(S2)C(C#N)C3=NC(=NC=C3)NCCC4=CN=CC=C4 + COc1cccc2cc(-c3nc([C@H]4CC[C@H](C(=O)O)CC4)n4ncnc(N)c34)[nH]c12 [OSI-027] (partner 0.5 µM)
In short: as §1

[2] = compound: C1=CC=C2C(=C1)N=C(S2)C(C#N)C3=NC(=NC=C3)NCCC4=CN=CC=C4 + Nc1nc2[nH]cc(CCc3ccc(C(=O)N[C@@H](CCC(=O)O)C(=O)O)cc3)c2c(=O)[nH]1 [Pemetrexed] (partner 0.2 µM)
In short: as §1

Vandetanib + Dasatinib = compound: COc1cc2/c(=N/c3ccc(Br)cc3F)nc[nH]c2cc1OCC1CCN(C)CC1 [Vandetanib] + Cc1nc(Nc2ncc(C(=O)Nc3c(C)cccc3Cl)s2)cc(N2CCN(CCO)CC2)n1 [Dasatinib] (partner 0.075 µM)
In short: as §1

| Cell Line | relative viability (CUDC-101 + Luminespib; first compound 0.01 µM) | relative viability (CUDC-101 + Luminespib; first compound 0.03162 µM) | relative viability (CUDC-101 + Luminespib; first compound 0.1 µM) | relative viability (CUDC-101 + Luminespib; first compound 0.3162 µM) | relative viability (CUDC-101 + Luminespib; first compound 1 µM) | relative viability ([1]; first compound 0.005 µM) | relative viability ([1]; first compound 0.01581 µM) | relative viability ([1]; first compound 0.05 µM) | relative viability ([1]; first compound 0.1581 µM) | relative viability ([1]; first compound 0.5 µM) | relative viability ([2]; first compound 0.005 µM) | relative viability ([2]; first compound 0.01581 µM) | relative viability ([2]; first compound 0.05 µM) | relative viability ([2]; first compound 0.1581 µM) | relative viability ([2]; first compound 0.5 µM) | relative viability (Vandetanib + Dasatinib; first compound 0.02 µM) | relative viability (Vandetanib + Dasatinib; first compound 0.06325 µM) | relative viability (Vandetanib + Dasatinib; first compound 0.2 µM) | relative viability (Vandetanib + Dasatinib; first compound 0.6325 µM) | relative viability (Vandetanib + Dasatinib; first compound 2 µM) |
| --- | --- | --- | --- | --- | --- | --- | --- | --- | --- | --- | --- | --- | --- | --- | --- | --- | --- | --- | --- | --- |
| 201T | 1.03 | 0.988 | 0.981 | 1.08 | 1.02 | 0.935 | 0.696 | 0.7 | 0.833 | 0.779 | 0.348 | 0.337 | 0.349 | 0.313 | 0.357 | 0.573 | 0.527 | 0.578 | 0.589 | 0.575 |
| A-427 | 0.919 | 0.92 | 0.864 | 0.75 | 0.55 | 0.481 | 0.467 | 0.442 | 0.475 | 0.39 | 0.874 | 0.94 | 0.995 | 1.1 | 0.975 | 0.721 | 0.697 | 0.638 | 0.704 | 0.702 |
| ABC-1 | 0.519 | 0.368 | 0.721 | 0.586 | 0.258 | 0.592 | 0.407 | 0.51 | 0.606 | 0.517 | – | – | – | – | – | 0.423 | 0.547 | 0.605 | 0.614 | 0.367 |
| BEN | 0.534 | 0.402 | 0.467 | 0.302 | 0.37 | 0.427 | 0.283 | 0.274 | 0.625 | 0.587 | 0.751 | 0.627 | 0.773 | 0.883 | 0.741 | 0.309 | 0.331 | 0.271 | 0.286 | 0.288 |
| CAL-12T | 0.525 | 0.337 | 0.337 | 0.556 | 0.36 | 0.811 | 0.536 | 0.525 | 0.534 | 0.427 | 0.575 | 1.19 | 1.11 | 1.43 | 0.88 | 0.426 | 0.407 | 0.387 | 0.29 | 0.32 |
| COR-L23 | 0.801 | 0.734 | 0.658 | 0.632 | 0.353 | 0.369 | 0.839 | 0.716 | 0.985 | 0.511 | 0.211 | 0.207 | 0.187 | 0.206 | 0.17 | 0.485 | 0.438 | 0.462 | 0.446 | 0.564 |
| COR-L 105 | 0.768 | 0.701 | 0.845 | 0.831 | 0.476 | 0.576 | 0.556 | 0.71 | 0.768 | 0.547 | 0.839 | 1.24 | 1.03 | 1.03 | 1.02 | 0.337 | 0.322 | 0.271 | 0.281 | 0.184 |
| ChaGo-K-1 | 0.74 | 0.522 | 0.625 | 0.709 | 0.609 | – | 0.491 | 0.616 | 0.587 | 0.452 | 0.249 | 0.263 | 0.293 | 0.255 | 0.256 | 0.581 | 0.63 | 0.269 | 0.584 | 0.607 |
| EKVX | 0.916 | 0.677 | 0.749 | 0.982 | 0.81 | 0.736 | 0.909 | 0.681 | 0.69 | 0.659 | 0.398 | 0.382 | 0.39 | 0.459 | 0.417 | 0.547 | 0.566 | 0.498 | 0.602 | 0.374 |
| EMC-BAC-2 | 1.29 | 1.08 | 1.2 | 1.22 | 0.973 | 0.364 | 0.37 | 0.38 | 0.394 | 0.366 | 0.488 | 0.442 | 0.414 | 0.477 | 0.429 | 0.332 | 0.312 | 0.327 | 0.295 | 0.3 |
| EPLC-272H | 0.141 | 0.554 | 0.598 | 0.269 | 0.257 | 0.217 | 0.264 | 0.254 | 0.257 | 0.301 | – | 0.255 | 0.317 | 0.325 | 0.326 | 0.301 | – | 0.415 | 0.352 | 0.321 |
| H3255 | 0.845 | 0.648 | – | 0.541 | 0.439 | 0.732 | 0.596 | 0.608 | 0.581 | 0.702 | 0.568 | 0.558 | 0.532 | 0.622 | 0.584 | 0.364 | 0.358 | 0.325 | 0.252 | 0.264 |
| HARA | 0.465 | 0.682 | 0.616 | 0.311 | 0.185 | 0.602 | 0.373 | 0.493 | 0.464 | 0.472 | 0.271 | 0.205 | 0.259 | 0.283 | 0.305 | 0.305 | 0.264 | 0.239 | 0.237 | 0.303 |
| HCC-15 | 0.169 | 0.279 | 0.299 | 0.559 | 0.596 | 0.558 | 0.644 | 0.722 | 0.863 | 0.531 | 0.215 | 0.23 | 0.223 | 0.228 | 0.227 | 0.583 | 0.572 | 0.632 | 0.639 | 0.606 |
| HCC-44 | 0.947 | 0.909 | 1.03 | 1.03 | 1.06 | 0.421 | – | 0.566 | 0.531 | 0.47 | 0.723 | 0.677 | 0.668 | 0.648 | 0.675 | – | – | – | – | – |
| HCC-78 | – | – | – | – | – | 0.367 | 0.35 | 0.332 | 0.438 | 0.36 | 0.793 | 0.886 | 0.92 | 0.92 | 0.784 | 0.428 | 0.286 | 0.362 | 0.451 | 0.336 |
| HCC-366 | – | – | – | – | – | 0.482 | 0.961 | 0.856 | 1.05 | 0.672 | 0.177 | 0.146 | 0.145 | 0.165 | 0.164 | 0.6 | 0.625 | 0.663 | 0.561 | 0.637 |
| HCC-827 | 0.531 | 0.241 | 0.278 | 0.217 | 0.197 | 0.617 | 1.11 | 0.854 | 0.978 | 0.783 | 0.238 | 0.239 | 0.25 | 0.264 | 0.259 | 0.489 | 0.276 | 0.284 | 0.152 | 0.13 |
| HOP-62 | 0.931 | 0.875 | 0.902 | 0.859 | 0.794 | 0.669 | 0.828 | 0.762 | 0.989 | 0.793 | 0.344 | 0.337 | 0.33 | 0.345 | 0.351 | 0.611 | 0.569 | 0.671 | 0.573 | 0.684 |
| LC-2-ad | 1.04 | 0.953 | 1.15 | 0.974 | 0.707 | 0.724 | 0.803 | 0.912 | 0.875 | 0.695 | 0.259 | 0.328 | 0.293 | 0.271 | 0.278 | 0.574 | 0.471 | 0.49 | 0.317 | 0.211 |
| LCLC-97TM1 | 0.849 | 0.857 | 0.771 | 0.765 | 0.502 | 0.562 | 0.701 | 0.537 | 0.607 | 0.572 | 0.196 | 0.185 | 0.181 | 0.172 | 0.198 | 0.801 | 0.848 | 0.807 | 0.865 | 0.786 |
| LCLC-103H | 0.975 | 0.931 | 0.943 | 0.92 | 0.754 | 0.387 | 0.521 | 0.41 | 0.505 | 0.397 | 0.497 | 0.502 | 0.458 | 0.461 | 0.468 | 0.511 | 0.422 | 0.43 | 0.424 | 0.47 |
| LK-2 | 0.248 | 0.196 | 0.19 | 0.179 | 0.178 | 0.2 | 0.187 | 0.201 | 0.189 | 0.195 | 0.237 | 0.27 | 0.295 | 0.325 | 0.281 | 0.261 | 0.24 | 0.295 | 0.239 | 0.221 |
| LOU-NH91 | 0.395 | 0.216 | 0.334 | 0.385 | 0.316 | 0.673 | 0.689 | 0.703 | 0.733 | 0.729 | 0.403 | 0.429 | 0.418 | 0.375 | 0.441 | 0.53 | 0.433 | 0.506 | 0.442 | 0.317 |
| LU99A | 0.224 | 0.247 | 0.245 | 0.261 | 0.248 | 0.269 | 0.278 | 0.297 | 0.323 | 0.3 | 0.215 | 0.214 | – | 0.193 | 0.19 | 0.427 | 0.521 | 0.387 | 0.416 | 0.636 |
| LXF-289 | 0.651 | 0.632 | 0.741 | 0.752 | 0.449 | 0.515 | 0.863 | 0.797 | 0.846 | 0.589 | 0.832 | 0.979 | 0.876 | 0.912 | 0.857 | 0.24 | 0.218 | 0.107 | 0.257 | 0.253 |
| NCI-H727 | 0.399 | 0.392 | 0.558 | 0.342 | 0.396 | 0.814 | 0.526 | 0.568 | 0.748 | 0.508 | – | – | – | – | – | 0.403 | 0.408 | 0.317 | 0.318 | 0.329 |
| NCI-H1623 | 0.469 | 0.46 | 0.445 | 0.632 | 0.392 | 0.488 | 0.386 | 0.397 | 0.553 | 0.345 | – | – | – | – | – | 0.489 | 0.576 | 0.502 | 0.507 | 0.404 |
| NCI-H1648 | – | – | – | – | – | 0.238 | 0.239 | 0.289 | 0.26 | 0.28 | – | 0.682 | – | 0.673 | 0.652 | – | – | – | – | – |
